{"source": "ChEMBL document CHEMBL1146215", "about": "“Computer-aided rational drug design: a novel agent (SR13668) designed to mimic the unique anticancer mechanisms of dietary indole-3-carbinol to block Akt signaling” (J Med Chem, 2007)", "key": {"[1]": {"tested_on": "MCF7", "test": "Antitumor activity against MCF7 cells", "format": "functional, cell-based", "settings": "Homo sapiens"}, "[2]": {"biological_target": "Glycogen synthase kinase-3 beta (Homo sapiens) (UniProt P49841)", "sequence (P49841 whole entry, looked up)": "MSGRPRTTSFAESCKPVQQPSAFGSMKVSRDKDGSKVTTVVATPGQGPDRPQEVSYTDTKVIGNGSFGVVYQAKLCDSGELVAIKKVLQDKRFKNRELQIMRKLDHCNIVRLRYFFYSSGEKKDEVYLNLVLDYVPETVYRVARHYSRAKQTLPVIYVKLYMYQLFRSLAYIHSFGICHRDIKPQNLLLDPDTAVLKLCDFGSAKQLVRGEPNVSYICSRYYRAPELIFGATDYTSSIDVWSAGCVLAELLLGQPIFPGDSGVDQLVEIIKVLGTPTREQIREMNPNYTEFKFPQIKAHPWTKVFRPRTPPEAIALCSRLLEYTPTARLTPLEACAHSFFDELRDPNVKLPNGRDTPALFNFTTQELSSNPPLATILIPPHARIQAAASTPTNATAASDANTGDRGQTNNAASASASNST", "test": "Inhibition of GSK3-beta activity in PC3 cells", "format": "cell-based", "settings": "PC-3"}, "[3]": {"tested_on": "PC-3", "test": "Inhibition of serum-stimulated AKT phosphorylation in PC3 cells", "format": "cell-based", "settings": "Homo sapiens"}, "[4]": {"tested_on": "MDA-MB-468", "test": "Inhibition of serum-stimulated AKT phosphorylation in MDA-MB-468 cells", "format": "cell-based", "settings": "Homo sapiens"}, "[5]": {"tested_on": "Mus musculus", "test": "Toxicity assessed as effect on fasting glucose level in mouse at 500 mg/kg/day, po after 14 days", "format": "organism-based", "parameters": "route oral", "settings": "in vivo, 336 h"}, "[6]": {"tested_on": "Mus musculus", "test": "Toxicity assessed as effect on body weight of mouse at 500 mg/kg/day, po after 14 days", "format": "organism-based", "parameters": "route oral", "settings": "in vivo, 336 h"}, "[7]": {"biological_target": "RAC-alpha serine/threonine-protein kinase (Homo sapiens) (UniProt P31749)", "sequence (P31749 whole entry)": "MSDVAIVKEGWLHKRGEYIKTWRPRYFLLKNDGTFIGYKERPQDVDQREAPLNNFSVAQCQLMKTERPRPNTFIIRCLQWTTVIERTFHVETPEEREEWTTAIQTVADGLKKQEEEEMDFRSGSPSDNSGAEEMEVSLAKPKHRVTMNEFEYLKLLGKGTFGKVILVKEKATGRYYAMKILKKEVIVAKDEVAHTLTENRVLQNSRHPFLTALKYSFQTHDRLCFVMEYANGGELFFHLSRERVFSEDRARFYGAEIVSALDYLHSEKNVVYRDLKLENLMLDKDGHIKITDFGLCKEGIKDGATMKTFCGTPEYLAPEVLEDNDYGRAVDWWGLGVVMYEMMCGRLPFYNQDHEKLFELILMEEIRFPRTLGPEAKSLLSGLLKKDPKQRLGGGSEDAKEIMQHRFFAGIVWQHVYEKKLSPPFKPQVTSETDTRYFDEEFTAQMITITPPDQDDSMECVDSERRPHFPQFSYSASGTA", "test": "Inhibition of Akt1"}, "[8]": {"biological_target": "RAC-gamma serine/threonine-protein kinase (Homo sapiens) (UniProt Q9Y243)", "sequence (Q9Y243 whole entry)": "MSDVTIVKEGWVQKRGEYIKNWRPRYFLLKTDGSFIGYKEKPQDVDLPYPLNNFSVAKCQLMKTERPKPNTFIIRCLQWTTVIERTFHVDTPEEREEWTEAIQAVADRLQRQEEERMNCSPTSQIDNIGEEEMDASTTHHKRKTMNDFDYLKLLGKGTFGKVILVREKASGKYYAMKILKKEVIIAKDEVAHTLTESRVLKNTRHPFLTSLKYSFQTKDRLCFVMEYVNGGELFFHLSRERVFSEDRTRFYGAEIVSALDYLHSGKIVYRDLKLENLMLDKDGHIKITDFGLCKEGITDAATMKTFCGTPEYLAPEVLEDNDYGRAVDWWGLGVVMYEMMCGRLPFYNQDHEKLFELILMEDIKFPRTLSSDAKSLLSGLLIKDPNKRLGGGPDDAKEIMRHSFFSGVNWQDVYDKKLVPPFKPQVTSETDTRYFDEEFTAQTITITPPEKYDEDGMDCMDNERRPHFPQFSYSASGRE", "test": "Inhibition of Akt3"}, "[9]": {"biological_target": "RAC-beta serine/threonine-protein kinase (Homo sapiens) (UniProt P31751)", "sequence (P31751 whole entry)": "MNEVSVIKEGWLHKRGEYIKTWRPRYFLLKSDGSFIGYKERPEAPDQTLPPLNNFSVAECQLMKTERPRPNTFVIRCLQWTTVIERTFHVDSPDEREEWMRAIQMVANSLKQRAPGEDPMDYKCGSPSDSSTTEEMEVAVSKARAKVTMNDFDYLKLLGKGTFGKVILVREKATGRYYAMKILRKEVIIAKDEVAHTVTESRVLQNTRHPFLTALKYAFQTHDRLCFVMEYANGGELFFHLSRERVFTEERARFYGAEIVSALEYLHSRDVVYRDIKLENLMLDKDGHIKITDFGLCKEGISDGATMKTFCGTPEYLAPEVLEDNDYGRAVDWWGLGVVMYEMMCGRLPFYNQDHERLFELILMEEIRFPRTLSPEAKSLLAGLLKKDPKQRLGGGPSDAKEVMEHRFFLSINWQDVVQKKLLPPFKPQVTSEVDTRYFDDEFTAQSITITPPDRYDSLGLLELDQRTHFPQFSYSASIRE", "test": "Inhibition of Akt2"}, "[10]": {"species_on_record": "Homo sapiens", "test": "Inhibition of PI3K"}, "[11]": {"biological_target": "T1, 3-phosphoinositide-dependent protein kinase 1 (Homo sapiens) (UniProt O15530)", "T1 sequence (whole entry)": "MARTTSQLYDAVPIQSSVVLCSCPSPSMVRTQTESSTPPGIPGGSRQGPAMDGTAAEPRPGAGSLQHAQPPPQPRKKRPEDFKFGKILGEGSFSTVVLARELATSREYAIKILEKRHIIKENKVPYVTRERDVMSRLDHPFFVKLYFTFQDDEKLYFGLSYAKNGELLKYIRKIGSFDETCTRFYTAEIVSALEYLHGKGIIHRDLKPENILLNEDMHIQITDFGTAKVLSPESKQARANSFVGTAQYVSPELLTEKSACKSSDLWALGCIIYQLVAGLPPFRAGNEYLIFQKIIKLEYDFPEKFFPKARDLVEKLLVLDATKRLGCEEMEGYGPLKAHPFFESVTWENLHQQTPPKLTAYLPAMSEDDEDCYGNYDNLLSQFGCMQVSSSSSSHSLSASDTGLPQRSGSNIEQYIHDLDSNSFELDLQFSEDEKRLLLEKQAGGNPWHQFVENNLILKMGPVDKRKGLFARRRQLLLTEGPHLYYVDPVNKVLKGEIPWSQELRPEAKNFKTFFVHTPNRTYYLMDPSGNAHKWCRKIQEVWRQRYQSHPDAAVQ", "test": "Inhibition of PDK1"}, "[12]": {"tested_on": "Rattus norvegicus", "test": "Toxicity in Sprague-Dawley rat at 25 mg/kg/day, po after 14 days", "format": "organism-based", "parameters": "route oral", "settings": "in vivo, 336 h"}, "[13]": {"tested_on": "Rattus norvegicus", "test": "Toxicity in Sprague-Dawley rat at 75 mg/kg/day, po after 14 days", "format": "organism-based", "parameters": "route oral", "settings": "in vivo, 336 h"}, "[14]": {"tested_on": "Rattus norvegicus", "test": "Toxicity in Sprague-Dawley rat at 200 mg/kg/day, po after 14 days", "format": "organism-based", "parameters": "route oral", "settings": "in vivo, 336 h"}, "[15]": {"tested_on": "Rattus norvegicus", "test": "Toxicity in Sprague-Dawley rat at 600 mg/kg/day, po after 14 days", "format": "organism-based", "parameters": "route oral", "settings": "in vivo, 336 h"}, "[16]": {"species_on_record": "Mus musculus", "test": "Genotoxicity by mouse micronucleus test", "format": "toxicity, organism-based", "settings": "in vivo"}, "[17]": {"tested_on": "MDA-MB-231", "test": "Inhibition of tumor growth in MDA-MB-231 cells xenografted po dosed mouse", "format": "functional, organism-based", "settings": "Homo sapiens"}, "[18]": {"tested_on": "PC-3", "test": "Inhibition of tumor growth in PC3 cells xenografted po dosed mouse", "format": "functional, organism-based", "settings": "Homo sapiens"}, "[19]": {"tested_on": "SK-OV-3", "test": "Inhibition of tumor growth in SKOV3 cells xenografted po dosed mouse", "format": "functional, organism-based", "settings": "Homo sapiens"}, "[20]": {"tested_on": "MCF7", "test": "Inhibition of tumor growth in MCF7 cells xenografted BALB/c mouse at 10 mg/kg/day, ip after 30 days", "format": "functional, Homo sapiens", "settings": "720 h, route intraperitoneal"}, "[21]": {"tested_on": "MCF7", "test": "Inhibition of tumor growth in MCF7 cells xenografted BALB/c mouse at 10 mg/kg/day, po after 30 days", "format": "functional, Homo sapiens", "settings": "MCF7, 720 h"}}, "note": "Activity calls are given as the source filed them. No cut-off for these calls is given here."}
{"smiles": "CC(C)(c1c[nH]c2ccccc12)c1c[nH]c2ccccc12", "values": [{"measurement": "IC50", "setting": "[1]", "value": "> 10000", "unit": "nM"}]}
{"smiles": "CCOC(=O)c1ccc2[nH]c3c(OC)c4[nH]c5ccc(C(=O)OCC)cc5c4cc3c2c1", "note": "[SR-13668]", "values": [{"measurement": "IC50", "setting": "[1]", "value": 190, "unit": "nM"}, {"measurement": "Activity", "setting": "[2]", "value": "Active"}, {"measurement": "Activity", "setting": "[3]", "value": "Active"}, {"measurement": "Activity", "setting": "[4]", "value": "Active"}, {"measurement": "Activity", "setting": "[5]", "value": "Active"}, {"measurement": "Activity", "setting": "[6]", "value": "Active"}, {"measurement": "Activity", "setting": "[7]", "value": "inactive"}, {"measurement": "Activity", "setting": "[8]", "value": "inactive"}, {"measurement": "Activity", "setting": "[9]", "value": "inactive"}, {"measurement": "Activity", "setting": "[10]", "value": "inactive"}, {"measurement": "Activity", "setting": "[11]", "value": "inactive"}, {"measurement": "Activity", "setting": "[12]", "value": "Non-toxic"}, {"measurement": "Activity", "setting": "[13]", "value": "Non-toxic"}, {"measurement": "Activity", "setting": "[14]", "value": "Non-toxic"}, {"measurement": "Activity", "setting": "[15]", "value": "Non-toxic"}, {"measurement": "Activity", "setting": "[16]", "value": "Non-toxic"}, {"measurement": "Activity", "setting": "[17]", "value": "Active"}, {"measurement": "Activity", "setting": "[18]", "value": "Active"}, {"measurement": "Activity", "setting": "[19]", "value": "Active"}]}
{"smiles": "CS(=O)(=O)c1ccc2[nH]cc(Cc3c[nH]c4ccc(S(C)(=O)=O)cc34)c2c1", "values": [{"measurement": "IC50", "setting": "[1]", "value": "> 10000", "unit": "nM"}]}
{"smiles": "C=C(c1c[nH]c2ccccc12)c1c[nH]c2ccccc12", "values": [{"measurement": "IC50", "setting": "[1]", "value": 3300, "unit": "nM"}]}
{"smiles": "CN(C)C(=O)c1ccc2[nH]cc(Cc3c[nH]c4ccc(C(=O)N(C)C)cc34)c2c1", "values": [{"measurement": "IC50", "setting": "[1]", "value": "> 10000", "unit": "nM"}]}
{"smiles": "CCOC(=O)c1ccc2[nH]c3c(C(F)(F)C(F)(F)C(F)(F)F)c4[nH]c5ccc(C(=O)OCC)cc5c4cc3c2c1", "values": [{"measurement": "IC50", "setting": "[1]", "value": 90, "unit": "nM"}]}
{"smiles": "CCOC(=O)Oc1c2[nH]c3ccc(C(=O)OCC)cc3c2cc2c1[nH]c1ccc(C(=O)OCC)cc12", "values": [{"measurement": "IC50", "setting": "[1]", "value": 110, "unit": "nM"}]}
{"smiles": "c1ccc2c(Cc3c[nH]c4ccccc34)c[nH]c2c1", "note": "[ARUNDINE]", "values": [{"measurement": "IC50", "setting": "[1]", "value": 5500, "unit": "nM"}]}
{"smiles": "c1ccc2[nH]c(Cc3cc4ccccc4[nH]3)cc2c1", "values": [{"measurement": "IC50", "setting": "[1]", "value": 940, "unit": "nM"}]}
{"smiles": "O=C(O)c1ccc2[nH]cc(Cc3c[nH]c4ccc(C(=O)O)cc34)c2c1", "values": [{"measurement": "IC50", "setting": "[1]", "value": "> 10000", "unit": "nM"}]}
{"smiles": "c1cc(-c2c[nH]c3ccccc23)cc(-c2c[nH]c3ccccc23)c1", "values": [{"measurement": "IC50", "setting": "[1]", "value": "> 10000", "unit": "nM"}]}
{"smiles": "CCOC(=O)c1ccc2[nH]cc(Cc3c[nH]c4ccc(C(=O)OCC)cc34)c2c1", "values": [{"measurement": "IC50", "setting": "[1]", "value": 1750, "unit": "nM"}]}
{"smiles": "CCOC(=O)Oc1c2[nH]c3ccccc3c2cc2c1[nH]c1ccccc12", "values": [{"measurement": "IC50", "setting": "[1]", "value": 80, "unit": "nM"}, {"measurement": "inhibition in vivo at 10 mg/kg/day", "setting": "[20]", "value": 43, "unit": "%"}, {"measurement": "inhibition in vivo at 10 mg/kg/day", "setting": "[21]", "value": 26, "unit": "%"}]}
